The test system of this test is P. aeruginosa ATCC 27853. The class given is cell-based, Pseudomonas aeruginosa. The following applies: after 30 passages in sub-MBC concentration. As to the method: Finally, P. aeruginosa ATCC 27853 was used as the model of the drug resistance study. […] The MBC values of the drugs against every two passage’s cells were tested. As a control, MBCs were also tested using cells that were serially passaged in fresh MHB without drugs. The assay was conducted independently in triplicate with three biological replicates.

Here are results for one compound from publication PMC7725003, “Systematically Studying the Optimal Amino Acid Distribution Patterns of the Amphiphilic Structure by Using the Ultrashort Amphiphiles” (Frontiers in Microbiology, 2020).

In the case of `CC(C)(O/N=C(\C(=O)N[C@@H]1C(=O)N2C(C(=O)[O-])=C(C[n+]3ccccc3)CS[C@H]12)c1csc(N)n1)C(=O)O` [ceftazidime, reference compound], the “increase of MBC value” came out at 64 fold.
